≈ marks a conversion by molar mass, not a printed value. Where a name gives a salt, the structure may show the parent alone. Read-outs that look alike come from different tables or passages of the source. Residues, ends and D or L forms follow the SMILES beside them.
Legend:
[1] = Effect of drying and humidity exposure on crystalline solid (XRPD); type: physicochemical
Method: Powder x-ray diffraction (XRPD) experiments were performed on a Rigaku MiniFlex 600 equipped with a Cu Kα radiation source (wavelength of x-rays 1.54 Å), and a scintillation detector. Samples were prepared on Si zero-return wafers. Scans were performed from 2θ 4 to 30 degrees over a step size of 0.05 over thirty minutes with cathode ray tube voltage and current 40 kV and 15 mA, respectively.
The crystalline solid was dried at 50 C under vacuum overnight, and analyzed by XRPD. […] Furthermore, the dry solid was exposed to about 95% relative humidity at room temperature for 24 hours followed by XRPD analysis. […] It should be noted that 3-HCl salt of MTP-131 deliquesces at more than 70% relative humidity.

[2] = Gravimetric vapour sorption (GVS); type: physicochemical
Method: Approximately 15 mg of sample was placed into a mesh vapour sorption balance pan and loaded into an IGASorp Moisture Sorption Analyser balance by Hiden Analytical. The sample was subjected to a ramping profile from 40-90% relative humidity (RH) at 10% increments, maintaining the sample at each step until a stable weight had been achieved (98% step completion). After completion of the sorption cycle, the sample was dried using the same procedure to 0% RH, then subjected to a second ramping profile from 0-90% relative humidity. After completion of the second sorption cycle, the sample was dried using the same procedure to 0% RH, and finally taken back to the starting point of 40% RH. The weight change during the sorption/desorption cycles were plotted, allowing for the hygroscopic nature of the sample to be determined.

[3] = physchem
[4] = physchem; settings: water
Method: The solubility of the crystalline solid was assessed qualitatively in water.

Cc1cc(O)cc(C)c1C[C@H](NC(=O)[C@H](N)CCCNC(=N)N)C(=O)N[C@@H](CCCCN)C(=O)N[C@@H](Cc1ccccc1)C(N)=O [MTP-131 HCl] (HELM PEPTIDE1{[dR].[Cc1cc(O)cc(C)c1C[C@H](N[*:1])C(=O)[*:2]].K.F.[am]}$$$$V2.0)
Relative humidity at which the salt deliquesces [1]: more than 70 % relative humidity
Hygroscopicity by GVS [2]: highly hygroscopic
GVS mass increase ([2]; between 40-90% RH): ca. 30%
State of solid after GVS ([2]; ramping up to 90% RH): deliquesced and adhered to the basket
solubility [3]: ≤ 10000 µg/mL
solubility ([3]; 2-Propanol, Solubility at 50° C.): < 10000 µg/mL
solubility ([3]; 2-Propanol:Water (95:5 v/v), Solubility at 50° C., 2-Propanol:Water (95:5 v/v)): < 10000 µg/mL
solubility ([3]; 2-Propanol:Water (99:1 v/v), Solubility at 50° C., 2-Propanol:Water (99:1 v/v)): < 10000 µg/mL
solubility ([3]; Acetone, Solubility at 50° C.): < 10000 µg/mL
solubility ([3]; Acetone:Water (95:5 v/v), Solubility at 50° C., Acetone:Water (95:5 v/v)): < 10000 µg/mL
solubility ([3]; Acetonitrile:DMSO (85:15 v/v), Solubility at 50° C., Acetonitrile:DMSO (85:15 v/v)): < 10000 µg/mL
solubility ([3]; Acetonitrile:Water (95:5 v/v), Solubility at 50° C., Acetonitrile:Water (95:5 v/v)): < 10000 µg/mL
solubility ([3]; Acetonitrile:Water (99:1 v/v), Solubility at 50° C., Acetonitrile:Water (99:1 v/v)): < 10000 µg/mL
solubility ([3]; DCM:DMSO (85:15 v/v), Solubility at 50° C., DCM:DMSO (85:15 v/v)): < 10000 µg/mL
solubility ([3]; Dichloromethane, Solubility, carried out at 35° C. (footnote)): < 10000 µg/mL
solubility ([3]; Ethanol, Solubility at 50° C.): 10000 µg/mL
solubility ([3]; Ethanol:DMSO (95:5% v/v), Solubility at 50° C., Ethanol:DMSO (95:5% v/v)): ~33000 µg/mL
solubility ([3]; Ethanol:Water (95:5 v/v), Solubility at 50° C., Ethanol:Water (95:5 v/v)): ~67000 µg/mL
solubility ([3]; Methanol, Solubility at 50° C.): > 200000 µg/mL
solubility ([3]; Methanol:Water (95:5 v/v), Solubility at 50° C., Methanol:Water (95:5 v/v)): > 200000 µg/mL
solubility ([3]; THF:Water (95:5% v/v), Solubility at 50° C., THF:Water (95:5% v/v), (separated)): < 10000 µg/mL
solubility ([3]; THF:Water (99:1 v/v), Solubility at 50° C., THF:Water (99:1 v/v)): < 10000 µg/mL
solubility ([3]; Trifluoroethanol, Solubility at 50° C.): < 10000 µg/mL

Cc1cc(O)cc(C)c1C[C@H](NC(=O)[C@H](N)CCCNC(=N)N)C(=O)N[C@@H](CCCCN)C(=O)N[C@@H](Cc1ccccc1)C(N)=O [crystalline solid] (HELM PEPTIDE1{[dR].[Cc1cc(O)cc(C)c1C[C@H](N[*:1])C(=O)[*:2]].K.F.[am]}$$$$V2.0)
Physical integrity after humidity exposure ([1]; about 95% relative humidity, room temperature, 24 hours): physically kept its integrity
XRPD pattern after drying (stability upon drying) ([1]; dried at 50 C under vacuum overnight): No changes were observed
XRPD after humidity exposure ([1]; dry solid, about 95% relative humidity, room temperature, 24 hours): remained unchanged
solubility [4]: ~60000 µg/mL (≈ 93.8 mM)
